Here are results for 1 compound from US12435095B2, “Substituted morpholines as ATR kinase inhibitors” (Shanghai Annova Biotechnology Co., Ltd., priority 2021, dated 2025).

The experiment relates to human colon cancer LoVo cells. The experiment in a line: Cell proliferation inhibition assay (CellTiter-Glo). The format is cell-based. The following applies: LoVo cells, 96 hours, CellTiter-Glo. An excerpt:
Experimental method: A CellTiter-Glo cell viability assay kit was used to test the inhibitory effect of the compounds on the in vitro proliferation of human colon cancer LoVo cells.
Experimental materials: LoVo cells (ATCC, Cat. No. CCL-29); F-12K medium (Invitrogen, Cat. No. 21127-022); fetal bovine serum (Biological Industries, Cat. No. 04-002-1A); GlutaMAX (Gibco, Cat. No. 35050-061); 0.25% trypsin-EDTA (Invitrogen, Cat. No. 25200-072); CellTiter-Glo kit (Promega, Cat. No. G7558).
Experimental procedure: (1) F-12K medium, fetal bovine serum and GlutaMAX were formulated into a complete medium for culturing LoVo cells; (2) well-grown LoVo cells were taken, digested with trypsin and transferred to a centrifuge tube, and centrifuged; the supernatant was discarded, and cells were resuspended by adding a fresh medium and counted by a Vi-CELL XR cell counter; the density of the cell suspension was adjusted to 25,000 to 30,000 cells/mL, and the cell suspension was added at 100 μL/well in a 96-well cell culture plate, while a blank control group was set up with no cells added, and the cell culture plate was incubated in a carbon dioxide incubator overnight; (3) a DMSO solution of the compound to be tested was dispensed into the above 96-well cell culture plate using an HP D300 ultra-micro sampler, with 0.5 μL of the solution per well and 10 concentrations for each compound (3× dilution), while a DMSO control group with no compound added was set up, and the plate was continued to be incubated in a carbon dioxide incubator for 96 hours; (4) the cell culture plate was taken out and equilibrated to room temperature, with 100 μL of a CellTiter-Glo reagent added to each well, and then the plate was kept away from light, shaken for 10 minutes and then incubated for 10 minutes; (5) the cell culture plate was put into EnSpire for plate reading, and the luminescence value RLU was recorded.
Data processing: (1) The inhibition rate was calculated from the luminescence values: “RLUDMSO” is the luminescence value of the DMSO control group without compound, “RLUblank” is the luminescence value of the blank control group without cells, and “RLUcompound” is the luminescence value of the compound test group, and the inhibition rate=[1−(RLUcompound−RLUblank)/(RLUDMSO−RLUblank)]×100%; (2) with curve fitting using the Excel add-on XLFit, the IC50 value was calculated.
(ATP-based viability assays read luminescence as a measure of living cells.)

Turning to `C[C@@H]1COCCN1c1nc(-c2ccnc3[nH]ccc23)cc2c1ccn2S(C)(=O)=O` [Compound 26, (R)-3-methyl-4-(1-(methylsulfonyl)-6-(1H-pyrrolo[2,3-b]pyridin-4-yl)-1H-pyrrolo[3,2-c]pyridin-4-yl)morpholine], the “Max Inhibition” value is listed as 92%. Also, the IC50 (usually the concentration that inhibits the measured activity by half) (Homo sapiens, read-out: LoVo IC50) is 740 nM.
